Data published in patent US8912200B2, “Alkynyl substituted pyrimidinyl-pyrroles active as kinases inhibitors” (Nerviano Medical Sciences S.R.L., priority 2011, dated 2014).

Assays:
[1] = biological target: T1, JAK2 kinase domain (Homo sapiens, UniProt O60674); test: Biochemical assay for inhibitors of JAK kinase activity (JAK2, 33P-γ-ATP/dowex resin); settings: JAK2 kinase domain 1 nM, 60 μM ATP
T1 construct: commercially available JAK2 kinase domain; purchased Invitrogen, Eugene, Oreg
From the text: Biochemical Assay for Inhibitors of JAK Kinase Activity
(§1) Specific JAK2, JAK1 or JAK3 peptide substrates are trans-phosphorylated by JAK kinases in the presence of ATP traced with 33P-γ-ATP. At the end of the phosphorylation reaction, the unreacted ATP, cold and radioactive, is captured by an excess of dowex ion exchange resin that eventually settles by gravity to the bottom of the reaction plate. The supernatant is subsequently withdrawn and transferred into a counting plate that is then evaluated by β-counting.
500 g of wet resin (SIGMA, custom prepared resin DOWEX 1×8 200-400 mesh, 2.5 Kg) are weighed out and diluted 2 to 1 in 150 mM sodium formate, pH 3.00. The resin is allowed to settle down overnight and then the supernatant is discarded. After three washes as above over a couple of days, the resin is allowed to settle and two volumes (with respect to the resin volume) of 150 mM sodium formate buffer are added.
Kinase buffer was composed of 50 mM HEPES pH 7.5 containing 10 mM MgCl2, 2.5 mM DTT, 10 μM Na3VO4 and 0.2 mg/mL BSA.
JAK2 Specific Assay Conditions
The JAK2 kinase assay was run with a final enzyme concentration of 1 nM, in the presence of 60 μM ATP, 3 nM 33P-γ-ATP and 64 μM of substrate BioDBn*306 (Aminoacid sequence: LPLDKDYYVVREPGQ—SEQ ID NO: 1). The peptidic substrate was purchased from American Peptide Company (Sunnyvale, Calif.).
(§2) For IC50 determination, test compounds are received as a 1 mM solution in 100% DMSO, distributed into 96 well plates: compounds are then plated into the first column of a microtiter plate (A1 to G1), 100 μL/well.
(§3) An automated station for serial dilutions (Biomek FX, Beckman) is used for producing 1:3 dilutions in 100% DMSO, from line A1 to A10, and for all the compounds in the column. Moreover, 4-5 copies of daughter plates are prepared by reformatting 5 μL of this first set of 100% DMSO dilution plates into 384 deep well-plates: one of these plates with the serial dilutions of test compounds will be thawed the day of the experiments, reconstituted at a 3× concentration with water and used in the IC50 determination assays. In a standard experiment, the highest concentration (3×) of all compounds is 30 μM, while the lowest one is 1.5 nM. Each 384 well-plate will contain at least one curve of the standard inhibitor staurosporine and reference wells (total enzyme activity vs. no enzymatic activity) for the Z′ and signal to background evaluation.
384-well plates, V bottom (test plates) are prepared with 5 μL of the compound dilution (3×) and then placed onto a PlateTrak 12 robotized station (Perkin Elmer; the robot has one 384-tip pipetting head for starting the assay plus one 96-tip head for dispensing the resin) together with one reservoir for the Enzyme mix (3×) and one for the ATP mix (3×). At the start of the run, the robot aspirates 5 μL of ATP mix, makes an air gap inside the tips (3 μl) and aspirates 5 μL of JAK2 mix. The following dispensation into the plates plus 3 cycles of mixing, done by the robot itself, starts the kinase reaction. At this point, the correct concentrations are restored for all the reagents. The robot incubates the plates for 60 minutes at room temperature, and then stops the reaction by pipetting 60 μL of dowex resin suspension into the reaction mix. In order to avoid tip clogging, wide bore tips are used to dispense the resin suspension. Three cycles of mixing are done immediately after the addition of the resin. Another mixing cycle is performed after all the plates are stopped, this time using normal tips: the plates are then allowed to rest for about one hour in order to allow resin sedimentation. At this point, 27 μL of the supernatant are transferred into 384-Optiplates (Perkin-Elmer), with 50 μL of Microscint 40 (Perkin-Elmer); after 5 min of orbital shaking the plates are read on a Perkin-Elmer Top Count radioactivity counter. […]

[2] = biological target: T2, Lyn full length (Homo sapiens, UniProt P07948); test: Biochemical assay for inhibitors of Lyn (Src family) kinase activity; settings: Lyn full length 1 nM, 25 μM ATP
T2 construct: The assay has been performed using Lyn full length
From the text: Biochemical Assay for Inhibitors of Lck and Lyn (Src Family) Kinases Activity
as §1, with “Lck and Lyn” for “JAK2, JAK1 or JAK3 peptide”, “Lck and Lyn” for “JAK”
Lyn Specific Assay Conditions
The assay has been performed using Lyn full length (accession number P07948 of UniProtKB/Swiss-Prot database).
Kinase buffer was composed of 50 mM HEPES pH 7.5 containing 3 mM MgCl2, 1 mM DTT, 3 μM Na3VO4, and 0.2 mg/mL BSA.
The Lyn kinase assay was run with a final enzyme concentration of 1 nM, in the presence of 25 μM ATP, 1.5 nM 33P-γ-ATP and 250 μM of substrate ABI 1 (Aminoacid sequence: EAIYAAPFAKKK—SEQ ID NO: 3). The peptidic substrate was purchased from American Peptide Company (Sunnyvale, Calif.).
as §2, §3
384-well plates, V bottom (test plates) are prepared with 5 μL of the compound dilution (3×) and then placed onto a PlateTrak 12 robotized station (Perkin Elmer; the robot has one 384-tip pipetting head for starting the assay plus one 96-tip head for dispensing the resin) together with one reservoir for the Enzyme mix (3×) and one for the ATP mix (3×). At the start of the run, the robot aspirates 5 μL of ATP mix, makes an air gap inside the tips (3 μl) and aspirates 5 μL of JAK2 mix. The following dispensation into the plates plus 3 cycles of mixing, done by the robot itself, starts the kinase reaction. At this point, the correct concentrations are restored for all the reagents. The robot incubates the plates for 60 minutes at room temperature, and then stops the reaction by pipetting 60 μL of dowex resin suspension into the reaction mix. In order to avoid tip clogging, wide bore tips are used to dispense the resin suspension. Three cycles of mixing are done immediately after the addition of the resin. Another mixing cycle is performed after all the plates are stopped, this time using normal tips: the plates are then allowed to rest for about one hour in order to allow resin sedimentation. At this point, 27 μL of the supernatant are transferred into 384-Optiplates (Perkin-Elmer), with 50 μL of Microscint 40 (Perkin-Elmer); after 5 min of orbital shaking the plates are read on a Perkin-Elmer Top Count radioactivity counter.
Data are analyzed by an internally customized version of the SW package “Assay Explorer” that provides sigmoidal fitting of the ten-dilutions curves for IC50 determination in the secondary assays/hit confirmation routines.

[3] = test system: JAK2 dependent human megakaryoblastic leukemia cell line SET-2; test: Cell proliferation assay (CellTiter-Glo, 72 hours); type: cell-based; settings: Homo sapiens, SET-2 cells
Procedure: The JAK2 dependent human megakaryoblastic leukemia cell line SET-2 (DSMZ, Braunschweig GERMANY) and the JAK2 independent human chronic myelogenous leukaemia cell line K562 (ECACC, Wiltshire, UK) were cultured in RPMI-1640 medium-Glutamax (Gibco BRL, Gaithesburg, Md., USA), supplemented with 10% fetal bovine serum (FBS) at 37° C. and 5% CO2.
Cell Proliferation Assay:
Approximately 5×10^3 cells were plated into 384 microtiter plate wells in 50 μL of growth media with different concentrations of inhibitors. The cells were incubated at 37° C. and 5% CO2 for 72 hours, then the plates were processed using CellTiter-Glo assay (Promega, Madison, Wis., USA) following the manufacturer's instruction. Briefly 25 μL/well reagent solution is added to each well and after 5 minutes shaking the micro-plates are read by Envision luminometer (PerkinElmer, Waltham, Mass., USA).
Data are analyzed by Symix Assay Explorer software (Symix Technologies Inc.) that provides sigmoidal fitting algorithm of the 8 points dilutions curves for IC50 determination.

T1 sequence (O60674 849-1124 limits assumed): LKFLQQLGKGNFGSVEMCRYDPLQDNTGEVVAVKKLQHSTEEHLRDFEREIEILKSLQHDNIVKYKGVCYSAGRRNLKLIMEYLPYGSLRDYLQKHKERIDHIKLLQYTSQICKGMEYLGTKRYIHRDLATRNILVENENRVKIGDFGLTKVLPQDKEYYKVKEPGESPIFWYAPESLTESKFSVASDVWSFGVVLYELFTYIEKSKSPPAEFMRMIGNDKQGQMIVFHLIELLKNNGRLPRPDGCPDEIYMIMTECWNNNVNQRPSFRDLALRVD
T2 sequence (P07948 whole entry): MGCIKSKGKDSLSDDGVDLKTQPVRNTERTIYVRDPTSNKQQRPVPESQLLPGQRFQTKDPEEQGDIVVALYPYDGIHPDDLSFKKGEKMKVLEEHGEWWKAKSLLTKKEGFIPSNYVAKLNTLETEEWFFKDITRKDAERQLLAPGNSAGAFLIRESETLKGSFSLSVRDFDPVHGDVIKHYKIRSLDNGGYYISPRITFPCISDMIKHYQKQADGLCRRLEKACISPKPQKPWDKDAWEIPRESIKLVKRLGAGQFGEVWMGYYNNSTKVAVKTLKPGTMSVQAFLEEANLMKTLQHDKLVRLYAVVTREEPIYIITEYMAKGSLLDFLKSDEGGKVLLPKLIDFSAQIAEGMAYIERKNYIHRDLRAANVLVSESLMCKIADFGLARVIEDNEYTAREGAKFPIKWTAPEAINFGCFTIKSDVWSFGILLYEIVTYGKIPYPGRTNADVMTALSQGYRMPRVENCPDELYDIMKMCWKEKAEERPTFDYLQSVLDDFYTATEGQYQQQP

SMILES	IC50 [1]	IC50 [2]	IC50 [3]
Cc1ccc(Cl)cc1-c1[nH]c(-c2nc(N)ncc2C#Cc2cccc(OC3CCN(C)CC3)c2)cc1C(N)=O [compound 32, 5-[2-Amino-5-({3-[(1-methylpiperidin-4-yl)oxy]phenyl}ethynyl)pyrimidin-4-yl]-2-(5-chloro-2-methylphenyl)-1H-pyrrole-3-carboxamide]	0.004 µM	0.006 µM	0.16 µM
COc1ccc(N2CCN(C)CC2)cc1C#Cc1cnc(N)nc1-c1cc(C(N)=O)c(-c2cc(Cl)ccc2C)[nH]1 [compound 34, 5-(2-Amino-5-{[2-methoxy-5-(4-methylpiperazin-1-yl)phenyl]ethynyl}pyrimidin-4-yl)-2-(5-chloro-2-methylphenyl)-1H-pyrrole-3-carboxamide]	0.005 µM	0.02 µM	0.67 µM
Cc1ccc(Cl)cc1-c1[nH]c(-c2nc(N)ncc2C#Cc2ccc(N3CCN(C)CC3)cc2F)cc1C(N)=O [compound 42, 5-(2-Amino-5-{[2-fluoro-4-(4-methylpiperazin-1-yl)phenyl]ethynyl}pyrimidin-4-yl)-2-(5-chloro-2-methylphenyl)-1H-pyrrole-3-carboxamide]	0.011 µM	0.009 µM	0.24 µM
COc1cc(N2CCN(C)CC2)ccc1C#Cc1cnc(N)nc1-c1cc(C(N)=O)c(-c2cc(Cl)ccc2C)[nH]1 [compound 46, 5-(2-Amino-5-{[2-methoxy-4-(4-methylpiperazin-1-yl)phenyl]ethynyl}pyrimidin-4-yl)-2-(5-chloro-2-methylphenyl)-1H-pyrrole-3-carboxamide]	0.006 µM	0.018 µM	0.29 µM
Cc1ccc(Cl)cc1-c1[nH]c(-c2nc(N)ncc2C#Cc2cccc(N3CCN(C)CC3)c2)cc1C(N)=O [compound 47, 5-(2-Amino-5-{[3-(4-methylpiperazin-1-yl)phenyl]ethynyl}pyrimidin-4-yl)-2-(5-chloro-2-methylphenyl)-1H-pyrrole-3-carboxamide]	0.003 µM	0.006 µM	0.22 µM
Cc1ccc(Cl)cc1-c1[nH]c(-c2nc(N)ncc2C#Cc2ccc(OC3CCN(C)CC3)cc2)cc1C(N)=O [compound 48, 5-[2-Amino-5-({4-[(1-methylpiperidin-4-yl)oxy]phenyl}ethynyl)pyrimidin-4-yl]-2-(5-chloro-2-methylphenyl)-1H-pyrrole-3-carboxamide]	0.006 µM	0.008 µM	0.16 µM
Cc1ccc(Cl)cc1-c1[nH]c(-c2nc(N)ncc2C#Cc2cc(N3CCN(C)CC3)ccc2F)cc1C(N)=O [compound 49, 5-(2-Amino-5-{[2-fluoro-5-(4-methylpiperazin-1-yl)phenyl]ethynyl}pyrimidin-4-yl)-2-(5-chloro-2-methylphenyl)-1H-pyrrole-3-carboxamide]	0.005 µM	0.02 µM	0.14 µM
Cc1ccc(Cl)cc1-c1[nH]c(-c2nc(N)ncc2C#CCN2CCN(C)CC2)cc1C(N)=O [compound 50, 5-{2-Amino-5-[3-(4-methylpiperazin-1-yl)prop-1-yn-1-yl]pyrimidin-4-yl}-2-(5-chloro-2-methylphenyl)-1H-pyrrole-3-carboxamide]	0.007 µM	0.026 µM	1.38 µM
Cc1ccc(Cl)cc1-c1[nH]c(-c2nc(N)ncc2C#Cc2cccc(NCCN)c2)cc1C(N)=O [compound 63, 5-[2-Amino-5-({3-[(2-aminoethyl)amino]phenyl}ethynyl)pyrimidin-4-yl]-2-(5-chloro-2-methylphenyl)-1H-pyrrole-3-carboxamide]	0.003 µM	0.005 µM	0.1 µM
Cc1ccc(Cl)cc1-c1[nH]c(-c2nc(N)ncc2C#Cc2ccc(CN3CCCC3)cc2)cc1C(N)=O [compound 66, 5-(2-Amino-5-{[4-(pyrrolidin-1-ylmethyl)phenyl]ethynyl}pyrimidin-4-yl)-2-(5-chloro-2-methylphenyl)-1H-pyrrole-3-carboxamide]	0.001 µM	0.001 µM	0.19 µM
Cc1ccc(Cl)cc1-c1[nH]c(-c2nc(N)ncc2C#Cc2ccc(CN3CCCCC3)cc2)cc1C(N)=O [compound 67, 5-(2-Amino-5-{[4-(piperidin-1-ylmethyl)phenyl]ethynyl}pyrimidin-4-yl)-2-(5-chloro-2-methylphenyl)-1H-pyrrole-3-carboxamide]	0.001 µM	0.001 µM	0.19 µM
Cc1ccc(Cl)cc1-c1[nH]c(-c2ccnc(N)n2)c(C#Cc2ccccc2)c1C(N)=O [compound 69, 5-(2-Amino-pyrimidin-4-yl)-2-(5-chloro-2-methyl-phenyl)-4-phenylethynyl-1H-pyrrole-3-carboxamide]	0.008 µM	0.02 µM	1.45 µM
Cc1ccc(Cl)cc1-c1[nH]c(-c2ccnc(N)n2)c(C#Cc2cccc(N)c2)c1C(N)=O [compound 72, 4-[(3-Aminophenyl)ethynyl]-5-(2-aminopyrimidin-4-yl)-2-(5-chloro-2-methylphenyl)-1H-pyrrole-3-carboxamide]	0.002 µM	0.01 µM	0.42 µM
